Test results: ChEMBL document CHEMBL4602603, “A review on HCV inhibitors: Significance of non-structural polyproteins” (Eur J Med Chem, 2019)

Each compound was assayed on Hepatitis C virus (assay: Antiviral activity against HCV genotype 3a). Settings: subtype 3a.
Type: functional, organism-based, Hepacivirus hominis

| EC50 | SMILES |
| --- | --- |
| 0.26 nM | C=C[C@H]1C[C@]1(NC(=O)[C@@H]1C[C@@H]2CN1C(=O)[C@H](C(C)(C)C)NC(=O)O[C@@H]1C[C@H]1CCCCCc1c(nc3ccccc3c1OC1CC3CCC(C1)N3C)O2)C(=O)NS(=O)(=O)C1(C)CC1 (some centres undefined) |

The compounds below were run against T1, Hepatitis C virus serine protease, NS3/NS4A (Hepatitis C virus, UniProt A3EZI9+D2K2A8) (assay: Inhibition of HCV NS3/4a protease in presence Zn2+). Settings: not given.
Type: protein-complex assay, Hepacivirus hominis

T1 sequence (D2K2A8 whole entry): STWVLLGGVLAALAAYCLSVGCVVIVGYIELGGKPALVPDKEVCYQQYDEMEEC
T1 sequence (A3EZI9 whole entry): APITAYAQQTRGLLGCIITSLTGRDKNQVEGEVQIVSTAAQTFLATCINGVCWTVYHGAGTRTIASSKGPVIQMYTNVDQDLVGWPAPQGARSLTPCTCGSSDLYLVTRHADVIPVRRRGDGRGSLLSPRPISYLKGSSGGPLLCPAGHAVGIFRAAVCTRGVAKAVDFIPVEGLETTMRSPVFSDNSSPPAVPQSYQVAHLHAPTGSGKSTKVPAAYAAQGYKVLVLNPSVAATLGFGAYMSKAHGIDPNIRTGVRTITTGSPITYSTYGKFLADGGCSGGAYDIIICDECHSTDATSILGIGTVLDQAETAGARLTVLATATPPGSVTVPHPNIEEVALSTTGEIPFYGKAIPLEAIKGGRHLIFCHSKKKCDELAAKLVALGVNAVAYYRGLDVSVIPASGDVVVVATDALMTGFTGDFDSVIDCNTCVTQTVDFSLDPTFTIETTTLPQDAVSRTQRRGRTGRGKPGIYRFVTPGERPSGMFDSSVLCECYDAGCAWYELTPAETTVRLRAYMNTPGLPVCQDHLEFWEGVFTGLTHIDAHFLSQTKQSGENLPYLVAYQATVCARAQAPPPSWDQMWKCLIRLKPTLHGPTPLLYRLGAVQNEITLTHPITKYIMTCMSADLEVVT

| Ki | SMILES |
| --- | --- |
| 27 nM | Cn1c(Cc2nc3cc(C(N)=O)ccc3[nH]2)nc2ccc(C(=O)NC(CP(=O)(O)O)C(=O)O)cc21 (centres undefined) |

Each compound was assayed against T2, RNA-directed RNA polymerase (Hepacivirus hominis, UniProt O39930) (assay: Inhibition of HCV NS5B polymerase). Settings: not given.
T2 sequence (O39930 whole entry): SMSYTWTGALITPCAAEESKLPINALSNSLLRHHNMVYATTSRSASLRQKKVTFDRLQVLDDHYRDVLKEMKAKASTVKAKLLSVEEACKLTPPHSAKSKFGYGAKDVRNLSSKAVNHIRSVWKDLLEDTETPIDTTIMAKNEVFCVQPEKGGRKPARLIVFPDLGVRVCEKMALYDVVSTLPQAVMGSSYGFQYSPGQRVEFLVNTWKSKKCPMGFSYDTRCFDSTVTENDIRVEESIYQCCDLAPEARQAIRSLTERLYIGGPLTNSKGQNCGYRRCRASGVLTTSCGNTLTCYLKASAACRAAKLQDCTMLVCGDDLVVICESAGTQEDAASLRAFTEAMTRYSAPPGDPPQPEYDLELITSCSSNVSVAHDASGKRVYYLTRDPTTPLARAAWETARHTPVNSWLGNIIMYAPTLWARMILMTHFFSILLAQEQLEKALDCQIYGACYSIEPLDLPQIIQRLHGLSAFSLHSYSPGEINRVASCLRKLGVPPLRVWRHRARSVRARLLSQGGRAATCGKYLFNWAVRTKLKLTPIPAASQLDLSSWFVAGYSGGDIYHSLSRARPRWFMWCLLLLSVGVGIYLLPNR

| IC50 | SMILES |
| --- | --- |
| 8 nM | Cc1cc2c(-c3ccc[nH]c3=O)c(C(=O)NS(=O)(=O)C3CC3)n(Cc3cc(F)ccc3F)c2cc1F |
| 53 nM | Nc1cc(Cn2c(C(=O)O)c(-c3ccc[nH]c3=O)c3ccc(Cl)cc32)ccn1 |
| 3000 nM | CCCC1(CC(=O)O)OCCC2c3c(CC)ccc(Cl)c3NC21 (centres undefined) |
| 39 nM | CS(=O)(=O)Nc1cccc(S(=O)(=O)NC(=O)c2c(-c3ccc[nH]c3=O)c3ccc(Cl)cc3n2Cc2ccnc(N)c2)c1 |
| 5 nM | Cc1ccc2c(-c3ccc[nH]c3=O)c(C(=O)NS(=O)(=O)C3CC3)n(Cc3cc(F)ccc3F)c2c1 |

| SMILES | IC50 |
| --- | --- |
| CC1COc2cc3c(-c4ccc[nH]c4=O)c(C(=O)NS(C)(=O)=O)n(Cc4cc(F)ccc4F)c3cc21 (centres undefined) | 6 to 15 nM |

The compounds below were run on Hepatitis C virus (assay: Antiviral activity against HCV). Settings: not given.
Type: functional, organism-based, Hepacivirus hominis

| EC50 | IC50 | SMILES |
| --- | --- | --- |
| 1700 nM |  | O=C(N[C@@H](Cc1c[nH]c2ccc(O)cc12)c1cscn1)c1ccc2c(c1)nc(-c1ccco1)n2C1CCCCC1 |
| 40 nM |  | CCCC[C@H](NC(=O)[C@@H]1[C@@H]2[C@H](CN1C(=O)[C@@H](NC(=O)NC1(CS(=O)(=O)C(C)(C)C)CCCCC1)C(C)(C)C)C2(C)C)C(=O)C(=O)NC1CC1 |
| 102000 nM |  | Nc1nc(C(F)(F)F)cc2c1[nH]c(=O)n2Cc1ccccc1 |
| 240 nM |  | O=C1Cn2c(c(C3CCCCC3)c3ccc(C(=O)O)cc32)-c2ccccc2N1 |
| 2200 nM |  | CCCCn1cc(/C=C2\Oc3cc(O)cc(O)c3C2=O)c2ccccc21 |
| 1 nM |  | C=C[C@@H]1C[C@]1(NC(=O)[C@@H]1C[C@@H](Oc2ncc(OC)c3ccc(Cl)cc23)CN1C(=O)[C@@H](NC(=O)OC(C)(C)C)C(C)(C)C)C(=O)NS(=O)(=O)C1CC1 |
| 20000 nM |  | COCCOc1nc(N)c2[nH]c(=O)n(Cc3ccccc3)c2n1 |
| 2900 nM |  | CN(C)C(=O)Cn1c(-c2ccccc2)c(C2CCCCC2)c2sc(C(=O)O)cc21 |
| 400 nM |  | O=C(O)c1ccc2c(C3CCCCC3)c3n(c2c1)CCN(CCN1CCCCC1)c1ccccc1-3 |
| 7.6 nM |  | O=C(O)c1ccc2c(C3CCCCC3)c3n(c2c1)CCOc1cc(OCc2cc(N4CCCC4=O)ccc2N2CCOCC2)ccc1-3 |
| 9.5 nM |  | COc1ccc2c(O[C@@H]3C[C@H]4C(=O)N[C@]5(C(=O)O)C[C@H]5/C=C\CCCCC[C@H](NC(=O)OC5CCCC5)C(=O)N4C3)cc(-c3csc(NC(C)C)n3)nc2c1 |
| 0.83 nM |  | COC(=O)N[C@H](C(=O)N1CCC[C@H]1c1nc2ccc(-c3ccc(-c4ccc5nc([C@@H]6CCCN6C(=O)[C@@H](NC(=O)OC)C(C)C)[nH]c5c4)cc3)cc2[nH]1)C(C)C |
| 180 nM |  | Cc1ccc(NC(=O)c2c(NO)cc(-c3ccccc3)oc2=O)cc1 |
| 150 nM |  | CC(C)N1CC[C@@H](N2CCn3c(c(C4CCCCC4)c4sc(C(=O)O)cc43)-c3ccccc3C2)C1 |
| 270 nM |  | CC(=O)N(c1ccc(N2CCOCC2)c(COc2ccc(-c3nc4cc(C(=O)O)ccc4n3C3CCCCC3)c(F)c2)c1)C(C)C |
|  | 3 nM | CC[C@@H]1C[C@]1(NC(=O)[C@@H]1C[C@@H]2CN1C(=O)[C@H](C(C)(C)C)NC(=O)OCC(C)(C)CCCCc1cccc3c1CN(C3)C(=O)O2)C(=O)NS(=O)(=O)C1CC1 |
| 400 nM |  | C/C(=C/c1cc(-c2ccc(OCc3cc(CN4CCC(O)CC4=O)ccc3-c3ccc(C#N)cc3)cc2)n(C2CCCCC2)n1)C(=O)O (centres undefined) |
| 38 nM |  | CN(C)CCN(C)[C@@H]1Cn2c(c(C3CCCCC3)c3ccc(C(=O)O)cc32)-c2ccccc2O1 |

| EC50 | IC50 | SMILES |
| --- | --- | --- |
| 4800 nM |  | Nc1cc(Cn2c(C(=O)O)c(-c3ccc[nH]c3=O)c3ccc(Cl)cc32)ccn1 |
| 50 nM |  | Cn1c(-c2ccco2)c(C2CCCCC2)c2ccc(C(=O)N[C@@H](Cc3c[nH]c4ccc(O)cc34)c3cscn3)cc21 |
| 29 nM |  | COc1ccc2c(c1)[C@H]1[C@@H](CCN1CCN(C)C)CCn1c-2c(C2CCCCC2)c2ccc(C(=O)O)cc21 |
| 4 nM |  | COc1ccc2c(c1)C=C(c1c(C(=O)C3C4CCCC3COC4)cnn1-c1ccncc1C)Cn1c-2c(C2CCCCC2)c2ccc(C(=O)NS(=O)(=O)C(C)C)cc21 (centres undefined) |
| 52 nM |  | Cn1c(-c2ccc(OCc3cc(N4CCCC4=O)ccc3N3CCOCC3)cc2)c(C2CCCCC2)c2sc(C(=O)O)cc21 |
| 11 nM |  | CS(=O)(=O)Nc1cccc(S(=O)(=O)NC(=O)c2c(-c3ccc[nH]c3=O)c3ccc(Cl)cc3n2Cc2ccnc(N)c2)c1 |
| 1 nM |  | CCc1ccc2c(-c3ccc[nH]c3=O)c(C(=O)NS(=O)(=O)C3CC3)n(Cc3cc([N+](=O)[O-])ccc3F)c2c1 |
| 130 nM |  | Cc1c(C(=O)O)sc2c(C3CCCCC3)c(-c3ccccc3)n(CC(=O)N(C)C3CCN(C(C)C)C3)c12 (centres undefined) |
| 120 nM |  | CCN(CC)C1CCN(C(=O)Cn2c(-c3ccco3)c(C3CCCCC3)c3ccc(C(=O)NS(=O)(=O)N(C)C)cc32)CC1 |
| 800 nM |  | CCN(CC)C1CCN(C(=O)Cn2c(-c3ccccc3)c(C3CCCCC3)c3ccc(C(=O)O)cc32)CC1 |
| 90 nM |  | Cc1ccc2c(-c3ccc[nH]c3=O)c(C(=O)NS(=O)(=O)C3CC3)n(Cc3cc(F)ccc3F)c2c1 |
| 140 nM |  | CN(C)CCN1CCn2c(c(C3CCCCC3)c3ccc(C(=O)O)cc32)-c2ccccc2C1 |
| 100000 nM |  | CCc1nc2c(N)nc3ccccc3c2n1CCCCNS(C)(=O)=O [CPG-52852] |
| 17.5 nM |  | CC(C)(C)OC(=O)N[C@H]1CCCCC/C=C\[C@@H]2C[C@@]2(C(=O)NS(=O)(=O)C2CC2)NC(=O)[C@@H]2C[C@@H](OC(=O)N3Cc4cccc(F)c4C3)CN2C1=O [DANOPREVIR] |
| 9.5 nM |  | C=C[C@@H]1C[C@]1(NC(=O)[C@@H]1C[C@@H]2CN1C(=O)[C@H](C(C)(C)C)NC(=O)O[C@@H]1C[C@H]1CCCCCc1nc3ccc(OC)cc3nc1O2)C(=O)NS(=O)(=O)C1CC1 [GRAZOPREVIR ANHYDROUS] |
| 1000 nM |  | CC(C)Cn1cnc2c(N)nc3ccccc3c21 [IMIQUIMOD] |
| 82 nM |  | COc1ccc2c(c1)C=C1Cn3c-2c(C2CCCCC2)c2ccc(cc23)C(=O)NS(=O)(=O)N(C)CCOCCN(C)C1=O [TMC-647055] |

These compounds were tested on Hepatitis C virus (assay: Antiviral activity against HCV genotype 1b). Settings: subtype 1b.
Type: functional, organism-based, Hepacivirus hominis

| EC50 | SMILES |
| --- | --- |
| 0.008 nM | COC(=O)N[C@H](C(=O)N1C[C@H](C)C[C@@H]1c1nc2sc(-c3ccc(-c4ccc(-c5c[nH]c([C@@H]6[C@H](C)CCN6C(=O)[C@H](NC(=O)OC)C(C)C)n5)cc4)cc3)cc2[nH]1)C(C)C |
| 0.62 nM | C=C[C@H]1C[C@]1(NC(=O)[C@@H]1C[C@@H]2CN1C(=O)[C@H](C(C)(C)C)NC(=O)O[C@@H]1C[C@H]1CCCCCc1c(nc3ccccc3c1OC1CC3CCC(C1)N3C)O2)C(=O)NS(=O)(=O)C1(C)CC1 (some centres undefined) |

What follows are compounds tested against T2, RNA-directed RNA polymerase (assay: Binding affinity to HCV NS5B polymerase). Settings: not given.

| Kd | IC50 | SMILES |
| --- | --- | --- |
| 720 nM |  | CN(C)CC1COc2ccc3nc4n(c3c2C1)CC(CN(C)C)CN4 (centres undefined) |
|  | 19 nM | O=C(N[C@@H](Cc1c[nH]c2ccccc12)C(=O)O)c1ccc2c(c1)nc(-c1ccoc1)n2C1CCCCC1 |
|  | 8800 nM | O=C(NCCCc1ccccc1)c1nc2ccccc2c(=O)n1O |
| 1700 nM |  | CN(C)CCCn1c(N)nc2ccc3c(c21)CC(CN(C)C)O3 (centres undefined) |
| > 100000 nM |  | CN(C)CCCn1c(N)nc2ccccc21 |
|  | 15700 nM | O=C(O)C1C(c2ccccc2)c2ccccc2C(=O)N1O (centres undefined) |
|  | 45000 nM | N#Cc1c(Cl)cc(Cl)cc1COc1cccc(C(=O)/C=C(\O)C(=O)O)c1 |

The compounds below were run against T1, Hepatitis C virus serine protease, NS3/NS4A (assay: Inhibition of HCV NS3/4a protease). Settings: not given.
Type: protein-complex assay, Hepacivirus hominis

| Ki | IC50 | SMILES |
| --- | --- | --- |
| 1000 nM |  | Cn1c(Cc2nc3cc(C(N)=O)ccc3[nH]2)nc2ccc(C(=O)NC(CP(=O)(O)O)C(=O)O)cc21 (centres undefined) |
|  | 800 nM | COc1ccc2cc(O[C@@H]3C[C@@H](C(=O)NC4(C(=O)O)CC4)N(C(=O)[C@@H](NC(=O)[C@@H](NC(C)=O)C4CCCCC4)C(C)C)C3)cnc2c1 |
| 20 nM |  | CC(=O)N[C@@H](C(=O)O)C(=O)N[C@@H](CCC(=O)O)C(=O)N[C@H](C(=O)N[C@@H](CCC(=O)O)C(=O)N[C@@H](CC1CCCCC1)C(=O)N[C@@H](CC(F)F)C(=O)O)C(c1ccccc1)c1ccccc1 |
|  | 33 nM | CC(=O)N[C@@H](C(=O)O)C(=O)N[C@@H](CCC(=O)O)C(=O)N[C@H](C(=O)N[C@H](C(=O)N1C[C@H](OCc2ccccc2)C[C@H]1C(=O)NC(CS)C(=O)O)C(C)C)C1CCCCC1 (some centres undefined) |
|  | 15000 nM | CC(C)C[C@H](NC[C@H](CC(=O)O)NC(=O)[C@H](CC1CCCCC1)NC(=O)[C@@H]1CCCC[C@H]1C(=O)O)C(N)=O |
| 40 nM |  | CC(=O)N[C@@H](C(=O)O)C(=O)N[C@@H](CCC(=O)O)C(=O)N[C@H](C(=O)N[C@@H](CCC(=O)O)C(=O)N[C@@H](CC1CCCCC1)C(=O)N[C@@H](CS)C(=O)O)C(c1ccccc1)c1ccccc1 |
| 600 nM |  | CC(C)C[C@H](NC(=O)[C@H](CC(=O)O)NC(=O)OC(C)C)C(=O)N[C@@H](CC(F)(F)F)C(=O)NCCc1ccc(C(=O)O)cc1Cl |
|  | 51 nM | CC(=O)N[C@@H](C(=O)O)C(=O)N[C@@H](CCC(=O)O)C(=O)N[C@H](C(=O)N[C@H](C(=O)N1C[C@H](OCc2ccccc2)C[C@H]1C(=O)NC1(C(=O)O)CC1)C(C)C)C1CCCCC1 |

The compounds below were run on Hepatitis C virus (assay: Antiviral activity against HCV genotype 1a). Settings: subtype 1a.
Type: functional, organism-based, Hepacivirus hominis

| EC50 | SMILES |
| --- | --- |
| 0.017 nM | COC(=O)N[C@H](C(=O)N1C[C@H](C)C[C@@H]1c1nc2sc(-c3ccc(-c4ccc(-c5c[nH]c([C@@H]6[C@H](C)CCN6C(=O)[C@H](NC(=O)OC)C(C)C)n5)cc4)cc3)cc2[nH]1)C(C)C |

Each compound was assayed against T1, Hepatitis C virus serine protease, NS3/NS4A (assay: Inhibition of HCV NS3/4a protease using Ac-DE-Dap(QXL520)-EE-Abu-shi-[COO]AS-C(5-FAMsp)-NH2 as substrate after 15 mins). Settings: not given.
Type: protein-complex assay, Hepacivirus hominis

| Ki | IC50 | SMILES |
| --- | --- | --- |
| 6 nM |  | CCCC[C@H](NC(=O)[C@@H]1[C@@H]2[C@H](CN1C(=O)[C@@H](NC(=O)NC1(CS(=O)(=O)C(C)(C)C)CCCCC1)C(C)(C)C)C2(C)C)C(=O)C(=O)NC1CC1 |
|  | 3 to 28.2 nM | COc1ccc2c(O[C@@H]3C[C@H]4C(=O)N[C@]5(C(=O)NS(=O)(=O)C6CC6)C[C@H]5/C=C/CCCCN(C)C(=O)[C@@H]4C3)cc(-c3nc(C(C)C)cs3)nc2c1C |
|  | 0.2 to 3.5 nM | CC(C)(C)OC(=O)N[C@H]1CCCCC/C=C\[C@@H]2C[C@@]2(C(=O)NS(=O)(=O)C2CC2)NC(=O)[C@@H]2C[C@@H](OC(=O)N3Cc4cccc(F)c4C3)CN2C1=O [DANOPREVIR] |
